Data taken from BindingDB's records for PubMed 2795135 (Stanford University, 1989).
“And” between values parts separate entries of the source, which are not always exact repeats. Equal values may be shown once.

What was measured:
[1] = target: 5-hydroxytryptamine receptor 2A (Rattus norvegicus, UniProt P14842)
[2] = target: 5-hydroxytryptamine receptor 2B (Bos taurus, UniProt Q8MI09)
5-hydroxytryptamine receptor 2B, sequence (Q8MI09 whole entry): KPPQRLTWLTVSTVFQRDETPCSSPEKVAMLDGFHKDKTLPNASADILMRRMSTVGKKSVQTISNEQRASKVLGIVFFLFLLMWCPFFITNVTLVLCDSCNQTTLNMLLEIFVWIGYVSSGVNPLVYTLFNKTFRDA

5-hydroxytryptamine receptor 2A, sequence (P14842 whole entry): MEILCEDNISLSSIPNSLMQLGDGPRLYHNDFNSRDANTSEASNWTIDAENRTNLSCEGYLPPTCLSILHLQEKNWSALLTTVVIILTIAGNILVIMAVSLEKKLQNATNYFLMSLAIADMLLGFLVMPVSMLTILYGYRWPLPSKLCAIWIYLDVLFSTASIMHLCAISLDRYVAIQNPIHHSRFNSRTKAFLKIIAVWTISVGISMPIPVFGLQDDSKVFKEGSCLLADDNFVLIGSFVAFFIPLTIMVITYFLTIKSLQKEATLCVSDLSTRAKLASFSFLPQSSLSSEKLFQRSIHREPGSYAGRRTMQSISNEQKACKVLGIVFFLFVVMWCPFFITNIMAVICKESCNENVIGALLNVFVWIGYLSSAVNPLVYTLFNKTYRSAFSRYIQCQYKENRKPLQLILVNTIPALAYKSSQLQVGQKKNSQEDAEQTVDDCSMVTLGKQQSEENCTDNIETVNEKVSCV

Row | SMILES | Ki [1] | Ki [2]
1 | CCCN(CCC)C1CCc2cccc(O)c2C1 (stereo not drawn) | 700 nM | 5400 nM
2 | CN1C2CCC1CC(OC(=O)c1c[nH]c3ccccc13)C2 (stereo not drawn) | > 10000 nM | 2600 nM
3 | CCc1cc(OC)c(CC(C)N)cc1OC (stereo not drawn) |  | 80 nM
4 | NCCc1c[nH]c2ccccc12 [1H-indole-3-ethanamine] | 11 nM | 1300 nM
5 | CN(C)CCc1c[nH]c2ccccc12 [2-(1H-indol-3-yl)-N,N-dimethylethanamine] | 42 nM | 550 nM
6 | c1ccc2nc(N3CCNCC3)ccc2c1 [2-Piperazin-1-yl-quinoline (Quipazine)] | 5 nM | 460 nM
7 | COc1cc(CCN)cc(OC)c1OC [3,4,5-trimethoxyphenylethylamine] | 150 nM | > 10000 nM
8 | COc1ccc2[nH]cc(CCN(C)C)c2c1 [3-(2-DIMETHYLAMINOETHYL)-5-METHOXYINDOLE] | 14 nM | 1300 nM
9 | O=C(c1ccc(F)cc1)C1CCN(CCn2c(=O)[nH]c3ccccc3c2=O)CC1 [3-(2-{4-[(4-fluorophenyl)carbonyl]piperidin-1-yl}ethyl)-1,2,3,4-tetrahydroquinazoline-2,4-dione] |  | 2.4 nM
10 | CN(C)CCc1c[nH]c2cccc(O)c12 [4-hydroxy-N,N-dimethyltryptamine] | 12 nM | 450 nM
11 | COc1ccc2[nH]cc(C3=CCNCC3)c2c1 [5-Methoxy-3-(1,2,3,6-tetrahydro-pyridin-4-yl)-1H-indole(RU-24969)] |  | 1200 nM
12 | CCN(CC)C(=O)[C@@H]1C=C2c3cccc4[nH]cc(c34)C[C@H]2N(C)C1 [(4R,7R)-N,N-diethyl-6-methyl-6,11-diazatetracyclo[7.6.1.0^{2,7}.0^{12,16}]hexadeca-1(16),2,9,12,14-pentaene-4-carboxamide] |  | 11 nM
13 | COc1cc(CC(C)N)c(OC)cc1C (stereo not drawn) [(+/-)2-(2,5-Dimethoxy-4-methyl-phenyl)-1-methyl-ethylamine] | 4.8 nM | 400 nM
14 | CN(C)CCCSc1ccccc1NC(=O)/C=C/c1ccccc1 [CINANSERIN] | 7 nM | 5 nM
15 | CN1C[C@@H](NS(=O)(=O)N(C)C)C[C@@H]2c3cccc4c3c(cn4C)C[C@H]21 [MESULERGINE] |  | 8 nM
16 | CN(C)CCCN1c2ccccc2Sc2ccc(Cl)cc21 [[3-(2-Chloro-phenothiazin-10-yl)-propyl]-dimethyl-amine(Chlorpromazine)] |  | 6 nM
17 | NCCc1c[nH]c2ccc(C(N)=O)cc12 [[3H]-5-carboxamidotryptamine] |  | > 10000 nM
18 | COc1cc(CC(C)N)c(OC)cc1I (stereo not drawn) [[125I]2,5-dimethoxy-4-iodoamphetamine] | 0.89 nM and 0.53 nM | 100 nM and 55 nM
19 | Clc1cccc(N2CCNCC2)c1 [mCPP] | 21 nM | 960 nM
20 | CN(C)CCc1c[nH]c2cccc(OP(=O)(O)O)c12 [psilocybin] | 13 nM | 600 nM
